From patent publication US9586961B2, “Homopiperazine derivatives as protein tyrosine kinase inhibitors and pharmaceutical use thereof” (LEO PHARMA A/S, priority 2010, dated 2017)

How the values were obtained:
Assay type in all cases: biochemical
JAK2 = target: T1, JAK2 (Homo sapiens, UniProt O60674); experiment: JAK2 kinase assay (HTRF, inhibition of phosphorylation of a synthetic peptide); conditions: catalytic domain, His-tag; 4 μM ATP (Km); read-out: JAK2 kinase inhibitory activity (EC50)
T1 construct: All four purified enzymes contain only the catalytic domain; His (N); purchased Carna Biosciences, Inc; host or cells: baculovirus expression system
Summary of the method: (§1)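 Baculovirus-expressed catalytic domains (GST-JAK1 aa 850-1154, GST-TYK2 aa 871-1187, His-JAK2, His-JAK3) phosphorylate 1 μM biotin-TK peptide 20-30 min at RT in 50 mM Hepes pH 7.0 with ATP at Km: JAK1 7 μM, JAK2 4 μM, JAK3 2 μM, TYK2 13 μM; 0.75% DMSO. Stopped with EDTA, HTRF read overnight.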

JAK3 = target: T2, JAK3 (Homo sapiens, UniProt P52333); experiment: JAK3 kinase assay (HTRF, inhibition of phosphorylation of a synthetic peptide); conditions: catalytic domain, His-tag; 2 μM ATP (Km); read-out: JAK3 kinase inhibitory activity (EC50)
T2 construct: All four purified enzymes contain only the catalytic domain; His (N); purchased Carna Biosciences, Inc; host or cells: baculovirus expression system
Summary of the method: as §1

TYK2 = target: T3, TYK2 (Homo sapiens, UniProt P29597); experiment: TYK2 kinase assay (HTRF, inhibition of phosphorylation of a synthetic peptide); conditions: catalytic domain aa 871-1187, GST-tag; 13 μM ATP (Km); read-out: TYK2 kinase inhibitory activity (EC50)
T3 construct: JAK1 (aa 850-1154) and TYK2 (aa 871-1187) are expressed with an N-terminally fused GST-tag; GST (N); purchased Carna Biosciences, Inc; host or cells: baculovirus expression system
T3 sequence (P29597 871-1187): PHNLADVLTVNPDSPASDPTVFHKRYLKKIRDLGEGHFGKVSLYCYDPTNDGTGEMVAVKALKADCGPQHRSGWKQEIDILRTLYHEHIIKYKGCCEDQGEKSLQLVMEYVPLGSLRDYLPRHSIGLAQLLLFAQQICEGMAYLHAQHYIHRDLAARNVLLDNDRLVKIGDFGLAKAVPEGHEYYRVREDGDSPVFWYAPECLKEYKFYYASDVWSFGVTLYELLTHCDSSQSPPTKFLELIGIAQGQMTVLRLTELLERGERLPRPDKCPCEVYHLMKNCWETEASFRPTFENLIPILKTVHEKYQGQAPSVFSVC
Description: JAK1, JAK2, JAK3 and TYK2 Kinase Assays:
Human baculovirus-expressed JAK1, 2, 3 and TYK2 were purchased from Carna Biosciences, Inc. All four purified enzymes contain only the catalytic domain. JAK1 (aa 850-1154) and TYK2 (aa 871-1187) are expressed with an N-terminally fused GST-tag, and JAK2 and JAK3 with an N-terminally fused His-tag. Inhibition of phosphorylation of a synthetic peptide was measured in an HTRF-based assay using the TK substrate-Biotin from the CisbioHTRFKinEASE TK kit. First, 2 μl of TK solution (TK substrate-biotin in kinase buffer [1× enzymatic buffer from HTRFKinEASE TK kit, 1 mM DTT]) is added to a plate containing 1 μl prediluted compound (final assay concentration DMSO: 0.75%). Then, 5 μl kinase-ATP mix (prepared in kinase buffer) is added to the wells and the plates are incubated at RT for 20-30 min. For all four kinases a concentration of ATP that corresponded to the Km for ATP was used. The final concentrations of buffers, substrate, kinase and ATP were: JAK1: 50 mMHepes buffer pH 7.0, 0.01% BSA, 10 mM MgCl2, 1 mM DTT, 7 μM ATP, 50 nMSEB, 1 μM TK Substrate-Biotin and 5 ng JAK1; JAK2: 50 mM Hepes buffer pH 7.0, 0.01% BSA, 5 mM MgCl2, 1 mM DTT, 4 μM ATP, 1 μM TK Substrate-Biotin and 0.1 ng JAK2; JAK3: 50 mMHepes buffer pH 7.0, 0.01% BSA, 5 mM MgCl2, 1 mM DTT, 2 μM ATP, 1 μM TK Substrate-Biotin and 0.3 ng JAK3; TYK2: 50 mMHepes buffer pH 7.0, 0.01% BSA, 5 mM MgCl2, 1 mM DTT, 13 μM ATP, 50 nMSEB, 1 μM TK Substrate-Biotin and 0.8 ng TYK2. Thereafter, the kinase reaction is stopped by adding 4 μl detection mix (final concentrations: 50 mM Hepes buffer pH 7.0, 0.01% BSA, 0.8 M KF, 20 mM EDTA, 42 nM Streptavidin-XL665 and 1:400 STKAbCryptate) and the plates are incubated overnight in the dark. The HTRF signal is read using an Envision plate reader.

JAK1 = target: T4, JAK1 (Homo sapiens, UniProt P23458); experiment: JAK1 kinase assay (HTRF, inhibition of phosphorylation of a synthetic peptide); conditions: catalytic domain aa 850-1154, GST-tag; 7 μM ATP (Km); read-out: JAK1 kinase inhibitory activity (EC50)
T4 construct: JAK1 (aa 850-1154) and TYK2 (aa 871-1187) are expressed with an N-terminally fused GST-tag; GST (N); purchased Carna Biosciences, Inc; host or cells: baculovirus expression system
Summary of the method: as §1

T1 sequence (O60674 849-1124 limits assumed): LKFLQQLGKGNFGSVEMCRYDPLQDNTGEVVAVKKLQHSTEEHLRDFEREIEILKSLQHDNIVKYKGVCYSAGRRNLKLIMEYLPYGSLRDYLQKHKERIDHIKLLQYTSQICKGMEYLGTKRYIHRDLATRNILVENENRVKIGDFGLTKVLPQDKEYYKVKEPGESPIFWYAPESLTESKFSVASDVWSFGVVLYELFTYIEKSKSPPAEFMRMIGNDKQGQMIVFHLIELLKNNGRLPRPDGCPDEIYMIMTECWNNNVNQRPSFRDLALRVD
T2 sequence (P52333 822-1111 limits assumed): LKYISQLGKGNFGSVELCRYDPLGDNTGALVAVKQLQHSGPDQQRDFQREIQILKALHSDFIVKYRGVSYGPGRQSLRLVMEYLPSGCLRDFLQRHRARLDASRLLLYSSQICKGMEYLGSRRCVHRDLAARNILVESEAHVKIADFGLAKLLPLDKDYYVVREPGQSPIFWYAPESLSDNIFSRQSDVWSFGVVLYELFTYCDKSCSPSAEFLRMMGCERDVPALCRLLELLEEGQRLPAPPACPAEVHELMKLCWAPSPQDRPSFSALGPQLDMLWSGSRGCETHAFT
T4 sequence (P23458 850-1154): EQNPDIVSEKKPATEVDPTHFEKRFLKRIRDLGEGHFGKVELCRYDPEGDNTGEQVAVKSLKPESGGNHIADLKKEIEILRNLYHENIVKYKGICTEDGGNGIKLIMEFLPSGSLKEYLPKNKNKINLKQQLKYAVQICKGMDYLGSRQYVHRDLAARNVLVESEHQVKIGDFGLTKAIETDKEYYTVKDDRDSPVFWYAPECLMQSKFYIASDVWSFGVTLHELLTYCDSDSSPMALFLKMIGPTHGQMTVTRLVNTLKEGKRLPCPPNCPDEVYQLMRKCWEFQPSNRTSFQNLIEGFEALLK

EC50 (JAK2) | EC50 (JAK3) | EC50 (TYK2) | EC50 (JAK1) | SMILES
100 to 1000 nM | 100 to 1000 nM | > 1000 nM | 100 to 1000 nM | CCC1=NOC(C(=O)N2CCCN(c3ncnc4[nH]ccc34)CC23CC3)C1 (racemic) [Example 123, (3-ethyl-4,5-dihydroisoxazol-5-yl)-[5-(7H-pyrrolo[2,3-d]pyrimidin-4-yl)-5,9-diazaspiro[2.6]nonan-9-yl]methanone]
< 100 nM | 100 to 1000 nM | 100 to 1000 nM | < 100 nM | N#CCCC(=O)N1CCN(c2ncnc3[nH]ccc23)CC2(CC2)C1 [Example 1, 4-Oxo-4-[8-(7H-pyrrolo[2,3-d]pyrimidin-4-yl)-5,8-diazaspiro[2.6]non-5-yl]butyronitrile]
> 1000 nM | > 1000 nM | > 1000 nM | > 1000 nM | COc1cccc(C(=O)N2CCN(c3ncnc4[nH]ccc34)CC3(CC3)C2)c1OC [Example 2, (2,3-Dimethoxyphenyl)-[8-(7H-pyrrolo[2,3-d]pyrimidin-4-yl)5,8-diazaspiro[2.6]non-5-yl]methanone]
100 to 1000 nM | > 1000 nM | > 1000 nM | 100 to 1000 nM | N#Cc1cccc(C(=O)N2CCN(c3ncnc4[nH]ccc34)CC3(CC3)C2)c1 [Example 3, 3-[8-(7H-pyrrolo[2,3-d]pyrimidin-4-yl)-5,8-diazaspiro[2.6]nonane-5-carbonyl]benzonitrile]
> 1000 nM | > 1000 nM | > 1000 nM | > 1000 nM | COc1ncccc1C(=O)N1CCN(c2ncnc3[nH]ccc23)CC2(CC2)C1 [Example 4, (2-Methoxypyridin-3-yl)-[8-(7H-pyrrolo[2,3-d]pyrimidin-4-yl)-5,8-diazaspiro[2.6]non-5-yl]methanone]
< 100 nM | < 100 nM | 100 to 1000 nM | < 100 nM | N#CCC(=O)N1CCN(c2ncnc3[nH]ccc23)CC2(CC2)C1 [Example 5, 3-oxo-3-[8-(7H-pyrrolo[2,3-d]pyrimidin-4-yl)-5,8-diazaspiro[2.6]non-5-yl]propionitrile]
100 to 1000 nM | > 1000 nM | > 1000 nM | 100 to 1000 nM | CC(=O)N1CCC(C(=O)N2CCN(c3ncnc4[nH]ccc34)CC3(CC3)C2)CC1 [Example 6, 1-{4-[8-(7H-pyrrolo[2,3-d]pyrimidin-4-yl)-5,8-diazaspiro[2.6]nonane-5-carbonyl]piperidin-1-yl}ethanone]
100 to 1000 nM | > 1000 nM | > 1000 nM | > 1000 nM | N#Cc1ccccc1C(=O)N1CCN(c2ncnc3[nH]ccc23)CC2(CC2)C1 [Example 7, 2-[8-(7H-pyrrolo[2,3-d]pyrimidin-4-yl)-5,8-diazaspiro[2.6]nonane-5-carbonyl]benzonitrile]
100 to 1000 nM | 100 to 1000 nM | > 1000 nM | < 100 nM | N#Cc1ccc2[nH]c(C(=O)N3CCN(c4ncnc5[nH]ccc45)CC4(CC4)C3)cc2c1 [Example 8, 2-[8-(7H-pyrrolo[2,3-d]pyrimidin-4-yl)-5,8-diazaspiro[2.6]nonane-5-carbonyl]-1H-indole-5-carbonitrile]
< 100 nM | 100 to 1000 nM | > 1000 nM | 100 to 1000 nM | N#Cc1cccc(CC(=O)N2CCN(c3ncnc4[nH]ccc34)CC3(CC3)C2)c1 [Example 9, 3-{2-oxo-2-[8-(7H-pyrrolo[2,3-d]pyrimidin-4-yl)-5,8-diazaspiro[2.6]non-5-yl]ethyl}benzonitrile]
< 100 nM | < 100 nM | 100 to 1000 nM | < 100 nM | N#Cc1ccc(CC(=O)N2CCN(c3ncnc4[nH]ccc34)CC3(CC3)C2)cc1 [Example 10, 4-{2-oxo-2-[8-(7H-pyrrolo[2,3-d]pyrimidin-4-yl)-5,8-diazaspiro[2.6]non-5-yl]ethyl}benzonitrile]
100 to 1000 nM | 100 to 1000 nM | > 1000 nM | > 1000 nM | CC(C)(C#N)C(=O)N1CCN(c2ncnc3[nH]ccc23)CC2(CC2)C1 [Example 11, 2,2-Dimethyl-3-oxo-3-[8-(7H-pyrrolo[2,3-d]pyrimidin-4-yl)-5,8-diazaspiro[2.6]non-5-yl]propionitrile]
100 to 1000 nM | > 1000 nM | > 1000 nM | 100 to 1000 nM | N#CCc1ccc(C(=O)N2CCN(c3ncnc4[nH]ccc34)CC3(CC3)C2)cc1 [Example 12, {4-[8-(7H-pyrrolo[2,3-d]pyrimidin-4-yl)-5,8-diazaspiro[2.6]nonane-5-carbonyl]phenyl}acetonitrile]
< 100 nM | > 1000 nM | > 1000 nM | 100 to 1000 nM | N#Cc1ccc(C(F)(F)C(=O)N2CCN(c3ncnc4[nH]ccc34)CC3(CC3)C2)cc1 [Example 13, 4-[1,1-difluoro-2-oxo-2-[5-(7H-pyrrolo[2,3-d]pyrimidin-4-yl)-5,8-diazaspiro[2.6]nonan-8-yl]ethyl]benzonitrile]
100 to 1000 nM | > 1000 nM | > 1000 nM | 100 to 1000 nM | N#CCOc1cccc(C(=O)N2CCN(c3ncnc4[nH]ccc34)CC3(CC3)C2)c1 [Example 14, 2-[3-[5-(7H-pyrrolo[2,3-d]pyrimidin-4-yl)-5,8-diazaspiro[2.6]nonane-8-carbonyl]phenoxy]acetonitrile]
< 100 nM | 100 to 1000 nM | – | 100 to 1000 nM | O=C(Cc1ccc(Cl)cc1Cl)N1CCN(c2ncnc3[nH]ccc23)CC2(CC2)C1 [Example 270, 2-(2,4-dichlorophenyl)-1-[5-(7H-pyrrolo[2,3-d]pyrimidin-4-yl)-5,8-diazaspiro[2.6]nonan-8-yl]ethanone]
< 100 nM | 100 to 1000 nM | – | 100 to 1000 nM | N#Cc1ccccc1CC(=O)N1CCN(c2ncnc3[nH]ccc23)CC2(CC2)C1 [Example 272, 2-[2-oxo-2-[5-(7H-pyrrolo[2,3-d]pyrimidin-4-yl)-5,8-diazaspiro[2.6]nonan-8-yl]ethyl]benzonitrile]
< 100 nM | 100 to 1000 nM | – | 100 to 1000 nM | N#Cc1cc(CC(=O)N2CCN(c3ncnc4[nH]ccc34)CC3(CC3)C2)ccc1F [Example 273, 2-fluoro-5-[2-oxo-2-[5-(7H-pyrrolo[2,3-d]pyrimidin-4-yl)-5,8-diazaspiro[2.6]nonan-8-yl]ethyl]benzonitrile]
< 100 nM | 100 to 1000 nM | – | 100 to 1000 nM | CC(C(=O)N1CCN(c2ncnc3[nH]ccc23)CC2(CC2)C1)c1ccccc1 (stereo not drawn) [Example 275, 2-phenyl-1-[5-(7H-pyrrolo[2,3-d]pyrimidin-4-yl)-5,8-diazaspiro[2.6]nonan-8-yl]propan-1-one]
100 to 1000 nM | > 1000 nM | – | 100 to 1000 nM | CC(=O)Nc1ccc(CC(=O)N2CCN(c3ncnc4[nH]ccc34)CC3(CC3)C2)cc1 [Example 276]
100 to 1000 nM | > 1000 nM | – | > 1000 nM | c1ccc(CN2CCCN(c3ncnc4[nH]ccc34)CC23CC3)cc1 [Example 280, 4-(9-benzyl-5,9-diazaspiro[2.6]nonan-5-yl)-7H-pyrrolo[2,3-d]pyrimidine]
